Measurements from patent US11014934B2, “Antiseptic drug” (AO “TATKHIMFARMPREPARATY”, priority 2017, dated 2021).
Where two headings read alike, the source gives them in different places.

Experiments:
E. faecalis 3047 = assay: MIC, serial dilutions in Müller-Hinton broth; assay type: cell-based
Experimental: (§1) A comparative assessment of the spectrum of antibacterial action was carried out on archival and clinical strains of gram-positive and gram-negative microorganisms in accordance with the [Opredeleniye chuvstvitel'nosti mikroorganizmov k antibakterial'nym preparatam (Metodicheskiye ukazaniya MUK 4.2.1890-04). Utverzhdeny i vvedeny v deystviye Glavnym gosudarstvennym sanitarnym vrachom Rossiyskoy Federatsii G. G. Onishchenko 04.03.2004 g. Determination of the sensitivity of microorganisms to antibacterial drugs (Guidelines MUK 4.2.1890-04). Approved and put into effect by the Chief State Sanitary Doctor of the Russian Federation G. G. Onishchenko on 4 Mar. 2004].
(§2) The value of the minimum inhibitory concentration (MIC) was determined by the method of serial dilutions on Müller-Hinton broth using 96-well sterile plates. Two-fold dilutions of the test substances in a nutrient medium were prepared. The final concentrations were 1-128 ug/ml. The growth of cultures was assessed visually, comparing the growth of microorganisms in the presence of test compounds with the growth of culture without them. […] The first lowest concentration of the studied substance (from a series of consecutive dilutions), where bacterial growth is not visually determined, is considered to be the minimum inhibitory concentration (MIC). MIC was determined by the method of serial dilutions in broth with increment=2, so the differences of neighboring dilutions are not considered to be significant. In each experience there is a positive (broth with growing culture) and a negative (broth without growing culture) control.
(§3) To determine the MIC, 10 μl of culture medium was taken from those wells in which growth was not observed, and inoculation was performed on a dense Müller-Hinton broth. For the preparation of the inoculum, a pure, daily culture of gram-positive and gram-negative microorganisms grown on a dense nutrient medium was used. Nutrient medium is Müller-Hinton broth, which was prepared from dry media (Müller-Hinton broth, Acumedia, Baltimore), cultivation was carried out on agarized Müller-Hinton broth, including an additional 2% agar. The media were autoclaved at 121° C. for 15 minutes. In a sterile isotonic solution of sodium chloride, a suspension of microorganisms was prepared, adjusting the inoculum density to 0.5 according to the McFarland standard (1.5·10^8 CFU/ml). Then, the resulting inoculum was diluted to a concentration of 10^7 CFU/ml with Müller-Hinton broth. The inoculum was used within 15 minutes after preparation; the purity of the bacterial strains was monitored before each experiment.
(§4) 100 μl of Müller-Hinton broth was added to the wells of each plate; The tested substance was introduced into the first well at a concentration of 128 μg/ml in a volume of 100 μl and its concentration was adjusted to 0.5 μg/ml by consecutive two-fold dilution. Then, the prepared inoculum (100 μI) was added to each well, thereby diluting twice the concentration of the studied compounds. […] In addition, the purity of nutrient media and solvents was monitored. The plates were incubated in a thermostat at 37° C. for 24 hours. The growth of cultures was assessed visually, comparing the growth of microorganisms in the presence of test compounds with the growth of culture without them.
(§5) For the MIC was taken the minimum concentration of the studied compounds, providing complete suppression of the visible growth of the studied strains of microorganisms. The maximum value obtained in three independent experiments was taken as the MIC of the compound.

Moraxella sp. 713 = assay: MIC, serial dilutions in Müller-Hinton broth; assay type: cell-based
Experimental: as §1, §2, §3, §4, §5

S. intermedius 1143 MRSA = assay: MIC, serial dilutions in Müller-Hinton broth; assay type: cell-based
Experimental: as §1, §2, §3, §4, §5

[1] = system: Rhizopus oryzae RCPF F-1537/1722; assay: Antifungal activity, 2-fold serial dilutions in Saburo glucose broth; assay type: cell-based, Rh. oryzae; conditions: for MIC: read-out: The value of the MIC
Experimental: The study of the antifungal activity of compound I in vitro was carried out in accordance with [Metodicheskiye rekomendatsii No 2. Mikologicheskoye issledovaniye ob″yektov okruzhayushchey sredy i opredeleniye protivogribkovoy aktivnosti razlichnykh veshchestv.—GOU DPO SPbMAPO NII meditsinskoy mikologii im. P. N. Kashkina, GBOU VPO SZGMU im. I. I. Mechnikova Minzdrava. SPb.: Izd. Dom SPbMAPO.—2008.—S. 16. Methodological recommendations No 2. Mycological examination of environmental objects and determination of antifungal activity of various substances.—State Educational Institution of St. Petersburg Medical Academy of Postgraduate Education with Scientific Research Institute of Medical Mycology named after P. N. Kashkin, State Educational Institution of Higher Professional Education North-West State Medical University named after I. I. Mechnikov, Ministry of Health. St. Petersburg.:: Publishing House SPbMAPO.—2008.—P. 16].
The study of the antifungal activity of substances in vitro was carried out in a liquid nutrient medium (Saburo glucose broth) in biological tubes by the method of 2-fold serial dilutions. In test tubes, three parallel series of dilutions of the test substance were prepared in the following way.
Saburo's liquid broth was sterilely poured in 3 ml into each tube; 4.5 ml was poured into the first tube of the row. A total of 14 tubes were used in a row; of which the last was a control one. […] The growth of cultures was initially assessed visually, comparing the growth of microorganisms in the presence of test compounds with the growth of culture without them. […] The first lowest concentration of the substance (from a series of consecutive dilutions), where the growth of fungi was suppressed or not visually determined, was considered the minimum inhibitory concentration (MIC).
For the preparation of inoculum, were respectively used pure (2-5) days cultures of yeast and mycelial fungi, grown on Saburo's dense nutrient broth. […] The inoculum was used within 15 minutes after preparation; the purity of the fungal strains was monitored before each experiment. […]

`CCCCCCCCCCCCCC(=O)NCCC[N+](C)(C)Cc1ccccc1.O.[Cl-]` [Miramistin, benzyldimethyl [3-(myristoylamino)propyl]-ammonium chloride monohydrate] was tested, and the MIC (E. faecalis 3047; Enterococcus faecalis, 3047) was 2 µg/mL, the MIC (Moraxella sp. 713; Moraxella, SP.713) was 32 µg/mL and the MIC (S. intermedius 1143 MRSA) was 8 µg/mL. For the same compound, the MIC [1] was 62.5 µg/mL.

For “alkyldimethyl(phenylmethyl) ammonium chloride [Benzalconium chloride]”, the MIC (E. faecalis 3047; E. faecalis 3047, inoculum 10^7 CFU/ml) was 2 µg/mL, the MIC (Moraxella sp. 713; Moraxella sp. 713, inoculum 10^7 CFU/ml) was 4 µg/mL and the MIC (S. intermedius 1143 MRSA; S. intermedius 1143 MRSA, inoculum 10^7 CFU/ml) was 4 µg/mL. For the same compound, the “The value of the MIC” value ([1]; Rh. nigricans RCPFF-l537/1722) was 15.6 µg/mL.

`CCCCCCCCCCCC[N+](C)(C)Cc1cnc(C[N+](C)(C)CCCCCCCCCCCC)c2c1COC(CC)O2` (stereo not drawn) [Compound I, 5,8-(Bis(methylene (N, N-dimethyl-N-dodecylammonium))-2-ethyl-4H-[1,3]dioxino [4,5-c]pyridiniumdichloride] showed an MIC (E. faecalis 3047; Enterococcus faecalis, E. faecalis 3047, inoculum 10^7 CFU/ml, read-out: MIC) of 4 µg/mL, an MIC (Moraxella sp. 713; Moraxella sp. 713, inoculum 10^7 CFU/ml, read-out: MIC) of 8 µg/mL and an MIC (S. intermedius 1143 MRSA; S. intermedius 1143 MRSA, inoculum 10^7 CFU/ml, read-out: MIC) of 4 µg/mL. The MIC ([1]; Rh. nigricans RCPFF-l537/1722) was 62.5 µg/mL.
